Measurements as given in PubChem BioAssay AID2060612 (Molecular Pharmacology Branch, DTP, NCI, 2025).

Tested on: 565232-114-T-J1-PDC complex spheroid viability
Test: Anticancer human tumor 565232-114-T-J1-PDC patient-derived bladder carcinoma cell line growth inhibition [CLK]
Conditions: for IC50: curve of first compound; for viability, T/C: stronger effect = lower value
Outline: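 Multi-cell-type spheroids combined patient-derived tumor cells with HUVEC endothelial cells and human mesenchymal stem cells. Paired agents were dosed in half-log steps down from about clinical Cmax, or from 10 microM where Cmax was unknown.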

[1] = second compound 0.0316 µM, first compound 0.0316 µM
[2] = second compound 0.0316 µM, first compound 0.1 µM
[3] = second compound 0.0316 µM, first compound 0.316 µM
[4] = second compound 0.0316 µM, first compound 1 µM
[5] = second compound 0.0316 µM, first compound 3.16 µM
[6] = second compound 0.0316 µM, first compound 10 µM
[7] = second compound 0.1 µM, first compound 0.0316 µM
[8] = second compound 0.1 µM, first compound 0.1 µM
[9] = second compound 0.1 µM, first compound 0.316 µM
[10] = second compound 0.1 µM, first compound 1 µM
[11] = second compound 0.1 µM, first compound 3.16 µM
[12] = second compound 0.1 µM, first compound 10 µM
[13] = second compound 0.316 µM, first compound 0.0316 µM
[14] = second compound 0.316 µM, first compound 0.1 µM
[15] = second compound 0.316 µM, first compound 0.316 µM
[16] = second compound 0.316 µM, first compound 1 µM
[17] = second compound 0.316 µM, first compound 3.16 µM
[18] = second compound 0.316 µM, first compound 10 µM
[19] = second compound 1 µM, first compound 0.0316 µM
[20] = second compound 1 µM, first compound 0.1 µM
[21] = second compound 1 µM, first compound 0.316 µM
[22] = second compound 1 µM, first compound 1 µM
[23] = second compound 1 µM, first compound 3.16 µM
[24] = second compound 1 µM, first compound 10 µM
[25] = second compound 3.16 µM, first compound 0.0316 µM
[26] = second compound 3.16 µM, first compound 0.1 µM
[27] = second compound 3.16 µM, first compound 0.316 µM
[28] = second compound 3.16 µM, first compound 1 µM
[29] = second compound 3.16 µM, first compound 3.16 µM
[30] = second compound 3.16 µM, first compound 10 µM
[31] = second compound 10 µM, first compound 0.0316 µM
[32] = second compound 10 µM, first compound 0.1 µM
[33] = second compound 10 µM, first compound 0.316 µM
[34] = second compound 10 µM, first compound 1 µM
[35] = second compound 10 µM, first compound 3.16 µM
[36] = second compound 10 µM, first compound 10 µM
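Note: spheroids exposed to compounds for 7 days before readout.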
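Throughout, for viability, T/C: 100% = DMSO vehicle wells with luminescence normalized to vehicle control.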

With COc1ccc([C@@H](O)c2cc(-c3ncnc4cc(N5CCOCC5)ccc34)c(F)cc2Cl)nn1 + CN1CCN(c2cc(C(=O)Nc3cc4cc(-c5cnn(C)c5)ccc4cn3)ccn2)CC1 the IC50 (second compound 0.0316 µM) was greater than 10000 nM, the IC50 (second compound 0.1 µM) was greater than 10000 nM and the IC50 (second compound 0.316 µM) was less than 31.6 nM. For the same molecule, the IC50 (second compound 1 µM) was less than 31.6 nM, the IC50 (second compound 3.16 µM) was less than 31.6 nM and the IC50 (second compound 10 µM) was less than 31.6 nM. It also gave a viability, T/C [1] of 87.3%, a viability, T/C [2] of 95.6% and a viability, T/C [3] of 88.1%. For the same molecule, the viability, T/C [4] was 85.4%, the viability, T/C [5] was 96.9% and the viability, T/C [6] was 103%. For the same molecule, the viability, T/C [7] was 88.1%, the viability, T/C [8] was 91.6% and the viability, T/C [9] was 86.3%. It also gave a viability, T/C [10] of 113%, a viability, T/C [11] of 105% and a viability, T/C [12] of 97.9%. It also gave a viability, T/C [13] of 12.2%, a viability, T/C [14] of 18.2% and a viability, T/C [15] of 17.1%. The viability, T/C [16] was 11.9%, the viability, T/C [17] was 16.2% and the viability, T/C [18] was 13.2%. For the same molecule, the viability, T/C [19] was 0.83%, the viability, T/C [20] was 0.2% and the viability, T/C [21] was 1.54%. The viability, T/C [22] was 0.18%, the viability, T/C [23] was 0.2% and the viability, T/C [24] was 1.34%. It also gave a viability, T/C [25] of 0.14%, a viability, T/C [26] of 0.2% and a viability, T/C [27] of 0.18%. The viability, T/C [28] was 0.18%, the viability, T/C [29] was 1.47% and the viability, T/C [30] was 1.21%. It also gave a viability, T/C [31] of 0.1%, a viability, T/C [32] of 0.16% and a viability, T/C [33] of 0.24%. The viability, T/C [34] was 0.19%, the viability, T/C [35] was 0.2% and the viability, T/C [36] was 1.44%.
CCCS(=O)(=O)Nc1ccc(F)c(C(=O)c2c[nH]c3ncc(-c4ccc(Cl)cc4)cc23)c1F + CNC(=O)c1ccc(Nc2nc(OC3CCCC3)c3c(-c4ccc5nc(C)oc5c4)c[nH]c3n2)c(OC)c1 showed an IC50 (second compound 0.0316 µM) of 5980 nM, an IC50 (second compound 0.1 µM) of 455 nM and an IC50 (second compound 0.316 µM) of less than 31.6 nM. It also gave an IC50 (second compound 1 µM) of less than 31.6 nM, an IC50 (second compound 3.16 µM) of less than 31.6 nM and an IC50 (second compound 10 µM) of less than 31.6 nM. It also gave a viability, T/C [1] of 95.7%, a viability, T/C [2] of 75.2% and a viability, T/C [3] of 75.3%. The viability, T/C [4] was 96.2%, the viability, T/C [5] was 110% and the viability, T/C [6] was 17.2%. For the same molecule, the viability, T/C [7] was 56.5%, the viability, T/C [8] was 56.1% and the viability, T/C [9] was 50.7%. For the same molecule, the viability, T/C [10] was 46.6%, the viability, T/C [11] was 30.8% and the viability, T/C [12] was 9.67%. The viability, T/C [13] was 36.1%, the viability, T/C [14] was 35.9% and the viability, T/C [15] was 32.9%. The viability, T/C [16] was 32.5%, the viability, T/C [17] was 26.3% and the viability, T/C [18] was 6.44%. The viability, T/C [19] was 23.7%, the viability, T/C [20] was 27.2% and the viability, T/C [21] was 26.4%. It also gave a viability, T/C [22] of 23.1%, a viability, T/C [23] of 16.4% and a viability, T/C [24] of 5.45%. For the same molecule, the viability, T/C [25] was 19.1%, the viability, T/C [26] was 20.5% and the viability, T/C [27] was 18.4%. The viability, T/C [28] was 18.8%, the viability, T/C [29] was 18.9% and the viability, T/C [30] was 4.02%. The viability, T/C [31] was 20.4%, the viability, T/C [32] was 17.8% and the viability, T/C [33] was 18.1%. The viability, T/C [34] was 17.2%, the viability, T/C [35] was 11.6% and the viability, T/C [36] was 3.9%.
